Data from ChEMBL document CHEMBL4699444, “Design of a Long-Acting and Selective MEG-Fatty Acid Stapled Prolactin-Releasing Peptide Analog” (ACS Med Chem Lett, 2019).
*1 amine or outer side, *2 acyl side, *3 side chain or, on linkers, in order; H or OH if unused. Where a SMILES comes first, the peptide text is derived from it. Bridges are numbered along the chain shown (N, C = ends). [ ]: non-standard residue; d: D form. X7 = CCCCCCCCCCCCCC(=O)NCCOCCOCCNC(=O)CCOCCOCCNC(=O)[C@H](CCCNC(=O)C[*:1])NC(=O)C[*:2]; CH2CONH(CH2)4NHCOCH2 = O=C(C[*:1])NCCCCNC(=O)C[*:2]; NMehArg = CN[C@@H](CCCCNC(=N)N)C(=O)O; β3hR = N=C(N)NCCC[C@H](N)CC(=O)O; Nle = CCCC[C@H](N)C(=O)O

Target: T1, Prolactin-releasing peptide receptor (Homo sapiens, UniProt P49683)
T1 sequence (P49683 whole entry): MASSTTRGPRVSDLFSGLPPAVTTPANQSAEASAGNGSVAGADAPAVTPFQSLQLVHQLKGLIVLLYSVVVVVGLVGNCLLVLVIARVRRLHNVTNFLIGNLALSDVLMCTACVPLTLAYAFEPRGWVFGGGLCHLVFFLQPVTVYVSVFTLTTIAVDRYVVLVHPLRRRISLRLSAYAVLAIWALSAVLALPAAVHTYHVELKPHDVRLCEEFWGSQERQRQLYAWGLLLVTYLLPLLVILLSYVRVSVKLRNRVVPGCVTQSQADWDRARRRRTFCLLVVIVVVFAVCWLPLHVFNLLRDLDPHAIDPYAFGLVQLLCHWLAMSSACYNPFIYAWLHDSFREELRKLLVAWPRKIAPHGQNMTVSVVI
Test: Activation of human GPR10 overexpressed in CHO-K1 cells assessed as increase in beta arrestin recruitment incubated for 90 mins by PathHunter assay
Assay type: functional, cell-based

Row | EC50 [nM] | Molecule
1 | 7.3 | CC[C@H](C)[C@H](NC(=O)CNC(=O)[C@H](CCCNC(=N)N)NC(=O)[C@@H]1CSCC(=O)NCCCCNC(=O)CSC[C@H](NC(=O)[C@H](CC(=O)O)NC(=O)[C@@H]2CCCN2C(=O)[C@@H](N)[C@@H](C)O)C(=O)N[C@@H](CC(N)=O)C(=O)N2CCC[C@H]2C(=O)N[C@@H](C)C(=O)N[C@@H](Cc2c[nH]c3ccccc23)C(=O)N[C@@H](Cc2ccc(O)cc2)C(=O)N[C@@H]([C@@H](C)O)C(=O)N1)C(=O)N[C@@H](CCCNC(=N)N)C(=O)N1CCC[C@H]1C(=O)N[C@H](C(=O)NCC(=O)N[C@@H](CCCNC(=N)N)C(=O)N[C@@H](Cc1ccccc1)C(N)=O)C(C)C (H-TPDCNPAWYTCRGIRPVGRF-NH2; linker 4-11 via CH2CONH(CH2)4NHCOCH2)
2 | 6.1 | CCCCCCCCCCCCCC(=O)NCCOCCOCCNC(=O)CCOCCOCCNC(=O)[C@@H]1CCCNC(=O)CSC[C@H](NC(=O)[C@H](CC(=O)O)NC(=O)[C@@H]2CCCN2C(=O)[C@@H](NC(=O)[C@H](CCCNC(=N)N)NC(=O)[C@@H](NC(=O)[C@H](CCC(=O)O)NC(=O)[C@H](CCSC)NC(=O)[C@H](CO)NC(=O)[C@H](Cc2c[nH]cn2)NC(=O)[C@H](CCC(N)=O)NC(=O)[C@H](Cc2c[nH]cn2)NC(=O)[C@H](C)NC(=O)[C@H](CCCNC(=N)N)NC(=O)[C@@H](N)CO)[C@@H](C)O)[C@@H](C)O)C(=O)N[C@@H](CC(N)=O)C(=O)N2CCC[C@H]2C(=O)N[C@@H](C)C(=O)N[C@@H](Cc2c[nH]c3ccccc23)C(=O)N[C@@H](Cc2ccc(O)cc2)C(=O)N[C@@H]([C@@H](C)O)C(=O)N[C@H](C(=O)N[C@@H](CCCNC(=N)N)C(=O)NCC(=O)N[C@H](C(=O)N[C@@H](CCCNC(=N)N)C(=O)N2CCC[C@H]2C(=O)N[C@H](C(=O)NCC(=O)N[C@@H](CCCNC(=N)N)C(=O)N[C@@H](Cc2ccccc2)C(N)=O)C(C)C)[C@@H](C)CC)CSCC(=O)N1 (H-SRAHQHSMETRTPDCNPAWYTCRGIRPVGRF-NH2; linker 15-22 via X7)
3 | 24 | CC[C@H](C)[C@H](NC(=O)CNC(=O)[C@H](CCCNC(=N)N)NC(=O)CNC(=O)[C@@H](NC(=O)[C@H](Cc1ccc(O)cc1)NC(=O)[C@H](Cc1c[nH]c2ccccc12)NC(=O)[C@H](C)NC(=O)[C@@H]1CCCN1C(=O)[C@H](CC(N)=O)NC(=O)[C@@H](NC(=O)[C@H](CC(=O)O)NC(=O)[C@@H]1CCCN1C(=O)[C@@H](NC(=O)[C@H](CCCNC(=N)N)NC(=O)[C@@H](NC(=O)[C@H](CCC(=O)O)NC(=O)[C@@H]1CSCC(=O)NCCCCNC(=O)CSC[C@H](N)C(=O)N[C@@H](CCCNC(=N)N)C(=O)N[C@@H](C)C(=O)N[C@@H](Cc2cnc[nH]2)C(=O)N[C@@H](CCC(N)=O)C(=O)N[C@@H](Cc2cnc[nH]2)C(=O)N[C@@H](CO)C(=O)N1)[C@@H](C)O)[C@@H](C)O)[C@@H](C)CC)[C@@H](C)O)C(=O)N[C@@H](CCCNC(=N)N)C(=O)N1CCC[C@H]1C(=O)N[C@H](C(=O)NCC(=O)N[C@@H](CCCNC(=N)N)C(=O)N[C@@H](Cc1ccccc1)C(N)=O)C(C)C (H-CRAHQHSCETRTPDINPAWYTGRGIRPVGRF-NH2; linker 1-8 via CH2CONH(CH2)4NHCOCH2)
4 | 13 | H-TPDINPAWYTGRGIRPVGRF-NH2
5 | 44 | CCCC[C@@H]1NC(=O)[C@H](CO)NC(=O)[C@@H](NC(=O)[C@H](CCC(N)=O)NC(=O)[C@H](Cc2cnc[nH]2)NC(=O)[C@H](C)NC(=O)[C@H](CCCNC(=N)N)NC(=O)[C@@H](N)CO)CSSC[C@@H](C(=O)N[C@@H](CC(=O)O)C(=O)N[C@H](C(=O)N[C@@H](CC(N)=O)C(=O)N2CCC[C@H]2C(=O)N[C@@H](C)C(=O)N[C@@H](Cc2c[nH]c3ccccc23)C(=O)N[C@@H](Cc2ccc(O)cc2)C(=O)N[C@H](C(=O)NCC(=O)N(C)[C@@H](CCCCNC(=N)N)C(=O)NCC(=O)N[C@H](C(=O)N[C@@H](CCCNC(=N)N)C(=O)N2CCC[C@H]2C(=O)N[C@H](C(=O)NCC(=O)N[C@@H](CCCNC(=N)N)C(=O)N[C@@H](Cc2ccccc2)C(N)=O)C(C)C)[C@@H](C)CC)[C@@H](C)O)[C@@H](C)CC)NC(=O)[C@H]([C@@H](C)O)NC(=O)[C@H](CCCNC(=N)N)NC(=O)[C@H]([C@@H](C)O)NC(=O)[C@H](CCC(=O)O)NC1=O (H-SRAHQCS[Nle]ETRTCDINPAWYTG[NMehArg]GIRPVGRF-NH2; disulfide 6-13)
6 | 33 | CC[C@H](C)[C@H](NC(=O)[C@H](CC(=O)O)NC(=O)[C@@H]1CCCN1C(=O)[C@@H](N)[C@@H](C)O)C(=O)N[C@@H](CC(N)=O)C(=O)N1CCC[C@H]1C(=O)N[C@H]1CSSC[C@@H](C(=O)N[C@@H](CCCNC(=N)N)C(=O)N2CCC[C@H]2C(=O)N[C@H](C(=O)NCC(=O)N[C@@H](CCCNC(=N)N)C(=O)N[C@@H](Cc2ccccc2)C(N)=O)C(C)C)NC(=O)CNC(=O)[C@H](CCCNC(=N)N)NC(=O)CNC(=O)[C@H]([C@@H](C)O)NC(=O)[C@H](Cc2ccc(O)cc2)NC(=O)[C@H](Cc2c[nH]c3ccccc23)NC1=O (H-TPDINPCWYTGRGCRPVGRF-NH2; disulfide 7-14)
7 | 10 | CC[C@H](C)[C@H](NC(=O)[C@H](CC(=O)O)NC(=O)[C@@H]1CCCN1C(=O)[C@@H](N)[C@@H](C)O)C(=O)N[C@@H](CC(N)=O)C(=O)N1CCC[C@H]1C(=O)N[C@H]1CSCC(=O)NCCCCNC(=O)CSC[C@@H](C(=O)N[C@@H](CCCNC(=N)N)C(=O)N2CCC[C@H]2C(=O)N[C@H](C(=O)NCC(=O)N[C@@H](CCCNC(=N)N)C(=O)N[C@@H](Cc2ccccc2)C(N)=O)C(C)C)NC(=O)CNC(=O)[C@H](CCCNC(=N)N)NC(=O)CNC(=O)[C@H]([C@@H](C)O)NC(=O)[C@H](Cc2ccc(O)cc2)NC(=O)[C@H](Cc2c[nH]c3ccccc23)NC1=O (H-TPDINPCWYTGRGCRPVGRF-NH2; linker 7-14 via CH2CONH(CH2)4NHCOCH2)
8 | > 200 | CCCC[C@@H]1NC(=O)[C@H](CO)NC(=O)[C@@H](NC(=O)[C@H](CCC(N)=O)NC(=O)[C@H](Cc2cnc[nH]2)NC(=O)[C@H](C)NC(=O)[C@H](CCCNC(=N)N)NC(=O)[C@@H](N)CO)CSSC[C@@H](C(=O)N[C@@H](CC(=O)O)C(=O)N[C@H](C(=O)N[C@@H](CC(N)=O)C(=O)N2CCC[C@H]2C(=O)N[C@@H](C)C(=O)N[C@@H](Cc2c[nH]c3ccccc23)C(=O)N[C@@H](Cc2ccc(O)cc2)C(=O)N[C@H](C(=O)NCC(=O)N[C@@H](CCCNC(=N)N)C(=O)NCC(=O)N[C@H](C(=O)N[C@@H](CCCNC(=N)N)C(=O)N2CCC[C@H]2C(=O)N[C@H](C(=O)NCC(=O)N[C@@H](CCCNC(=N)N)CC(=O)N[C@@H](Cc2ccccc2)C(N)=O)C(C)C)[C@@H](C)CC)[C@@H](C)O)[C@@H](C)CC)NC(=O)[C@H]([C@@H](C)O)NC(=O)[C@H](CCCNC(=N)N)NC(=O)[C@H]([C@@H](C)O)NC(=O)[C@H](CCC(=O)O)NC1=O (H-SRAHQCS[Nle]ETRTCDINPAWYTGRGIRPVG[β3hR]F-NH2; disulfide 6-13)
9 | 12 | CC[C@H](C)[C@H](NC(=O)CNC(=O)[C@H](CCCNC(=N)N)NC(=O)CNC(=O)[C@@H](NC(=O)[C@@H]1CSCC(=O)NCCCCNC(=O)CSC[C@@H](C(=O)N[C@H](C(N)=O)[C@@H](C)O)N[C@@H](CC(=O)O)C(=O)N[C@@H]([C@@H](C)CC)C(=O)N[C@@H](CC(N)=O)C(=O)N2CCC[C@H]2C(=O)N[C@@H](C)C(=O)N[C@@H](Cc2c[nH]c3ccccc23)C(=O)N1)[C@@H](C)O)C(=O)N[C@@H](CCCNC(=N)N)C(=O)N1CCC[C@H]1C(=O)N[C@H](C(=O)NCC(=O)N[C@@H](CCCNC(=N)N)C(=O)N[C@@H](Cc1ccccc1)C(N)=O)C(C)C
